Test results published in patent publication US20240165244A1 (Prelude Therapeutics Incorporated, priority 2022, published 2024).

Key:
[1] = system: SMARCA4 mutated cancer cells; conditions: Vangamudi et al. Cancer Res 2015; cited from earlier work
SMARCA4 = target: T1, SMARCA4 (Homo sapiens, UniProt P51532); test: SMARCA4 HiBiT degradation assay in HeLa cells; format: cell-based; conditions: 18 hours, highest concentration 10 μM
T1 construct: SMARCA4-HiBiT knock-in Hela monoclonal cell (CS3023226); host or cells: HeLa monoclonal cells with heterozygous HiBiT knock-in at the endogenous SMARCA4 locus
T1 sequence (P51532 whole entry): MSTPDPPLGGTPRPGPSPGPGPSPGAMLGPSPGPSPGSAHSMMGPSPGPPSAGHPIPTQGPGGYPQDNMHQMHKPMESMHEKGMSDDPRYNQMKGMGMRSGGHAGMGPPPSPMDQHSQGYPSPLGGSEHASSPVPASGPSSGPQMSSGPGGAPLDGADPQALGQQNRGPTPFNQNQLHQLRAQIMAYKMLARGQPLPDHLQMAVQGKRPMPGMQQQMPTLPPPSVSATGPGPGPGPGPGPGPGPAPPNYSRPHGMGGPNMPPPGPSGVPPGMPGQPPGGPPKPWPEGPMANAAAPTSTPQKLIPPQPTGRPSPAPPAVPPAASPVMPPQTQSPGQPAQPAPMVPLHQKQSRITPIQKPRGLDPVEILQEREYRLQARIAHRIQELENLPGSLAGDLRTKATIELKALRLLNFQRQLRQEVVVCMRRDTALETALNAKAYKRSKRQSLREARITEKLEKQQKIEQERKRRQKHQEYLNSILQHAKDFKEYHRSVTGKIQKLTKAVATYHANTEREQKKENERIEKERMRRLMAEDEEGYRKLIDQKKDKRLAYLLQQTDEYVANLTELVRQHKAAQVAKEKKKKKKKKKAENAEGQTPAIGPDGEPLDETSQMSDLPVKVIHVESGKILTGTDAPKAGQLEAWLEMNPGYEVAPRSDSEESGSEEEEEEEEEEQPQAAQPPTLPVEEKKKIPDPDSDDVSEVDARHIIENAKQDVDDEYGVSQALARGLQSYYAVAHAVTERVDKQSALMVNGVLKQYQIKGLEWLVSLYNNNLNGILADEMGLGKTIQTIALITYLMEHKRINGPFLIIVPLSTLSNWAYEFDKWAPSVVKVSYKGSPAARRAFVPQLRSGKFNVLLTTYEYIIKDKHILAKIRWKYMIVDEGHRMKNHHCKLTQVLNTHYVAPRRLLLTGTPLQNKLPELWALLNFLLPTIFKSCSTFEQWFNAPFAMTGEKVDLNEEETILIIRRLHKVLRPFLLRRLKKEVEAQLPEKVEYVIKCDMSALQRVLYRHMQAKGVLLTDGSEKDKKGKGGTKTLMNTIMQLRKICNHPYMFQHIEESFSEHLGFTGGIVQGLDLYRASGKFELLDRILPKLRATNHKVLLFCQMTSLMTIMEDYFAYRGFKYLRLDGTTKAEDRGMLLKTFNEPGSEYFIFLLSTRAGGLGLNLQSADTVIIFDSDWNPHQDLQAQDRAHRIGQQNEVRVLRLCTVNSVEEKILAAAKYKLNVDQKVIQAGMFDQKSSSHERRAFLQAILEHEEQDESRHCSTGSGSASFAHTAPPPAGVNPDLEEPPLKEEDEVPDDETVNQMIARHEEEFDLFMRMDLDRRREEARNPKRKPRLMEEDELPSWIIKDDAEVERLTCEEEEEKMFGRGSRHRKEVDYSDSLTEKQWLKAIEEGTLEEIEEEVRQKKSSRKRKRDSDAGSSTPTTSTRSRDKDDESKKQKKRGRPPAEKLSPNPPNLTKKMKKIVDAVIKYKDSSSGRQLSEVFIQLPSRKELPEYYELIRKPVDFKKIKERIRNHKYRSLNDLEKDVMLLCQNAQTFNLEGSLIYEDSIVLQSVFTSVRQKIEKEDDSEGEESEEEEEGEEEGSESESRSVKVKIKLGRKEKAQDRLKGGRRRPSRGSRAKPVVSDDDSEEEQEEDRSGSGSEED
Procedure, shortened: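 HeLa monoclonal cells with HiBiT knocked into SMARCA4 were seeded at 2500 cells/well, dosed with compound and incubated 18 hours at 37° C. HiBiT signal reported remaining SMARCA4 protein, and values came from curve fitting.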

SMARCA2 = target: T2, SMARCA2 (Homo sapiens, UniProt P51531); test: SMARCA2 HiBiT degradation assay in HeLa cells; format: cell-based; conditions: 18 hours, highest concentration 10 μM
T2 construct: SMARCA2-HiBiT knock-in Hela monoclonal cell (CS302366); host or cells: HeLa monoclonal cells with heterozygous HiBiT knock-in at the endogenous SMARCA2 locus
T2 sequence (P51531 whole entry): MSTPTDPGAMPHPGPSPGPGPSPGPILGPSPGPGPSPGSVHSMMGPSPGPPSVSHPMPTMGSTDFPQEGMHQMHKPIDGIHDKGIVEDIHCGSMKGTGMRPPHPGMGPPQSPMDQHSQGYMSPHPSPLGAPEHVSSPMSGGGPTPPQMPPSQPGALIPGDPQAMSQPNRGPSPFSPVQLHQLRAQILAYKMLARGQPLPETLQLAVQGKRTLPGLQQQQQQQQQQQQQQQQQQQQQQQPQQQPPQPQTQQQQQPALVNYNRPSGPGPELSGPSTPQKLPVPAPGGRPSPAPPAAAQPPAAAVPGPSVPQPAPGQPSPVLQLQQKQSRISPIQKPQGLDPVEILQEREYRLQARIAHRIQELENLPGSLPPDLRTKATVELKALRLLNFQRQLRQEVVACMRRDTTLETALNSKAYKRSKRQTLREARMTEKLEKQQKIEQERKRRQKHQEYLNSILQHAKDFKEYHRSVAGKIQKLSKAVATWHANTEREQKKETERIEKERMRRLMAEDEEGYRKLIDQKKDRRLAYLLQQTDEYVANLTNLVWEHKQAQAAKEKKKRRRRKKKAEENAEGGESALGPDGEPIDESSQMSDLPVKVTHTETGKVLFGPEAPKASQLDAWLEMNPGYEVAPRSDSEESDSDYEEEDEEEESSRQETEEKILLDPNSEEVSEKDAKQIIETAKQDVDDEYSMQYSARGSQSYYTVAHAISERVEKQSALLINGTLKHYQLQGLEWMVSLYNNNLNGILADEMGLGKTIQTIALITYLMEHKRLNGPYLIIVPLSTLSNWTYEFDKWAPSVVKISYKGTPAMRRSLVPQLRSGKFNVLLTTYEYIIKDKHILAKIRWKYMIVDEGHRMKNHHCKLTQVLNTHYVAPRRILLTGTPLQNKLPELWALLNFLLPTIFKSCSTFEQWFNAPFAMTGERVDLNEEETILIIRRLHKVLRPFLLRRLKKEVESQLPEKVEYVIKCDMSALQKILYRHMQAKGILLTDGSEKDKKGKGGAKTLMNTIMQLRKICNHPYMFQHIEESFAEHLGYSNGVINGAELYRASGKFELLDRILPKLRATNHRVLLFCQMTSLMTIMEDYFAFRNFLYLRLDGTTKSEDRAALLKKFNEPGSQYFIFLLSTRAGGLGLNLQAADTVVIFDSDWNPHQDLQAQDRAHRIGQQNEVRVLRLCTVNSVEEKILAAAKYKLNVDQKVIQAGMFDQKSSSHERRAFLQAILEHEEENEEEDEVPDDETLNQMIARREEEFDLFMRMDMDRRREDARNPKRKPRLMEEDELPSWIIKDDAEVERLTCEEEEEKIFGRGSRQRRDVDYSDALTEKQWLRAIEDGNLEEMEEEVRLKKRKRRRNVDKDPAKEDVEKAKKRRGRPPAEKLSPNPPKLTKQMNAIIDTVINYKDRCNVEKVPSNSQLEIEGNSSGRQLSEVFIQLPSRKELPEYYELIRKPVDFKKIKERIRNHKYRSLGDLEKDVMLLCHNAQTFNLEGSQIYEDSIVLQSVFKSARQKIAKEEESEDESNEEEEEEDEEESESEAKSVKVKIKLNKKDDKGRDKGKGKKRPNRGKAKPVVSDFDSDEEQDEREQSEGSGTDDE
Procedure, shortened: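 HeLa cells carrying a heterozygous C-terminal HiBiT knock-in on SMARCA2 were seeded at 2500 cells/well. They were treated with 3-fold dilution series, top concentration 10 μM, for 18 h at 37 °C. Remaining SMARCA2-HiBiT was measured by Nano-Glo HiBiT lytic luminescence after 30-60 min at RT, followed by curve fitting.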

Row | DC50 (SMARCA4) [nM] | Dmax (SMARCA4) [%] | DC50 (SMARCA2) [nM] | Dmax (SMARCA2) [%] | Structure (SMILES) | effects on cell proliferation inhibition [1]
1 | – | – | – | – | O=C(/C=C/N1C[C@H]2C[C@@H]1CN2c1ccccn1)c1ccccc1O [PFI-3] | none to minor effects
2 | 100 to 1000 | < 50 | < 100 | > 75 | CC[C@@]12CNc3nnc(-c4cccc(F)c4O)cc3N1C[C@H](Oc1cnc(CN3CCN(c4ccc5c(c4)C(=O)N([C@H]4CCC(=O)NC4=O)C5)CC3)c(C)n1)C2 [Example 57, (S)-3-(6-(4-((5-(((6aR,8R)-6a-ethyl-2-(3-fluoro-2-hydroxyphenyl)-5,6,6a,7,8,9-hexahydropyrrolo[1′,2′:4,5]pyrazino[2,3-c]pyridazin-8-yl)oxy)-3-methylpyrazin-2-yl)methyl)piperazin-1-yl)-1-oxoisoindolin-2-yl)piperidine-2,6-dione] | –
3 | < 100 | > 75 | < 100 | > 75 | O=C1CCC(N2Cc3ccc(N4CCN(Cc5ccc(O[C@@H]6C[C@@H]7CNc8nnc(-c9cc(F)cc(F)c9O)cc8N7C6)nc5)CC4)cc3C2=O)C(=O)N1 (stereo partly drawn) [Example 33, 3-(6-(4-((6-(((6aR,8R)-2-(3,5-difluoro-2-hydroxyphenyl)-5,6,6a,7,8,9-hexahydropyrrolo[1′,2′:4,5]pyrazino[2,3-c]pyridazin-8-yl)oxy)pyridin-3-yl)methyl)piperazin-1-yl)-1-oxoisoindolin-2-yl)piperidine-2,6-dione] | –
4 | < 100 | 50 to 75 | < 100 | > 75 | O=C1CCC(N2Cc3ccc(N4CCN(Cc5cnc(O[C@H]6CN7c8cc(-c9cccc(F)c9O)nnc8NC[C@@]7(CF)C6)c(F)c5)CC4)cc3C2=O)C(=O)N1 (stereo partly drawn) [Example 70, 3-(6-(4-((5-fluoro-6-(((6aR,8R)-2-(3-fluoro-2-hydroxyphenyl)-6a-(fluoromethyl)-5,6,6a,7,8,9-hexahydropyrrolo[1′,2′:4,5]pyrazino[2,3-c]pyridazin-8-yl)oxy)pyridin-3-yl)methyl)piperazin-1-yl)-1-oxoisoindolin-2-yl)piperidine-2,6-dione] | –
